Experimental data from US4032656A, “Aromatic prostaglandin derivatives” (SmithKline Corporation, priority 1975, dated 1977).

Key:
[1] = tested on: PGE2 diarrhea in mice; assay: Antagonism of diarrhea induced by prostaglandin E2 (PGE2); format: in vivo; details: 20 mg./kg., subcutaneously 15 minutes prior to intraperitoneal PGE2, examined every 15 minutes for one hour
Method: The antagonism of diarrhea induced by prostaglandin E2 (PGE2) was determined by employing the modified standard animal pharmacological test procedure as reported in Intra Science Chem. Rept, 6:1-9, 1972 and Annals of the New York Academy of Sciences, 180:386-95, 1971. Briefly the test comprises administering the test compounds subcutaneously 15 minutes prior to an intraperitoneal injection of PGE2. Each animal is examined for diarrhea (which results after the administration of PGE2) every 15 minutes for one hour post-drug. Polyphloretin phosphate and 7 oxa-13-prostynoic acid, both well known antagonists of prostaglandin induced diarrhea, were employed as reference compounds.

[2] = tested on: prostaglandin synthesis; assay: Inhibition of prostaglandin synthesis (arachidonic acid-dependent formation of adrenochrome from L-epinephrine during prostaglandin biosynthesis; Takeguchi and Sih); format: biochemical; details: for IC50: read-out: ID50 (the source's name)
Description: The prostaglandin synthesis inhibition method as employed is reported by Takeguchi and Sih, Prostaglandins, 2, 169, 1972. The principle entails the arachidonic acid-dependent formation of adrenochrome from L-epinephrine during prostaglandin biosynthesis. Indomethacin, phenylbutazone and aspirin were used as reference compounds.

[3] = prostaglandin synthesis inhibition

Row | Compound | inhibition of PGE2 diarrhea in mice [1] | IC50 [2, 3] | further results
1 | polyphloretin phosphate [reference compound] | 36% | – | –
2 | CCCCCC(O)/C=C/c1ccccc1CCCCCCC(=O)OC (stereo not drawn) [1-(6-carbomethoxyhexyl)-2-(3-hydroxy-trans-1-octenyl)benzene] | 53% | – | –
3 | CCCCC1C(=O)N(c2ccccc2)N(c2ccccc2)C1=O [phenylbutazone, reference compound] | – | 875 µM | –
4 | CC(=O)Oc1ccccc1C(=O)O [aspirin, reference compound] | – | 3700 µM | –
5 | CCCCCC(O)/C=C/c1ccccc1CCCCCCC(=O)O (stereo not drawn) [1-(6-carboxyhexyl)-2-(3-hydroxy-trans-1-octenyl)benzene] | – | 410 µM | inhibition of prostaglandin synthesis ([2]; at 1000 μM): 100%; potency as inhibitor relative to aspirin ([2]; ratio of ID50's, prostaglandin synthesis inhibition, vs aspirin): nine times as potent; potency as inhibitor relative to phenylbutazone ([2]; ratio of ID50's, prostaglandin synthesis inhibition, vs phenylbutazone): twice as potent
